Laboratory results reported in US20100120715A1, “BETA-LACTAMASE INHIBITORS” (priority 2007, published 2010).
Read-outs that look alike come from different tables or passages of the source.

Columns and labels:
Class A ESBL SHV-5 = target: T1, Class A ESBL SHV-5 (Klebsiella pneumoniae, UniProt P0A3M1); format: biochemical, E. coli; conditions: nitrocefin 100 μM, PBS pH 7.0, read-out: SHV-5 IC50 Range
T1 construct: made in house; host or cells: E. coli BL21(DE3) for purified enzyme; E. coli cells containing SHV-5 for extracts
T1 sequence (P0A3M1 22-286): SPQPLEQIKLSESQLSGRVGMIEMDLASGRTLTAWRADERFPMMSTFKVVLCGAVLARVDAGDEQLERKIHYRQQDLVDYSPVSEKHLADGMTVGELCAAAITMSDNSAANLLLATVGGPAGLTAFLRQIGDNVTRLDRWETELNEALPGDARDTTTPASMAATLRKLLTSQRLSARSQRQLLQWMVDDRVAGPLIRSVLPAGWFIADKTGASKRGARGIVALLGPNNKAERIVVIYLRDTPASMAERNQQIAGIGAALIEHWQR

Class A ESBL CTXM-15 = target: T2, Class A ESBL CTXM-15 (Escherichia coli, UniProt Q9EXV5); test: β-lactamase enzyme inhibition (nitrocefin hydrolysis), CTXM-15; format: biochemical; conditions: purified enzyme; nitrocefin 100 μM, PBS pH 7.0; read-out: CTXM-15 IC50 Range
T2 construct: made in house; host or cells: E. coli BL21(DE3)
T2 sequence (Q9EXV5 entry or part of it): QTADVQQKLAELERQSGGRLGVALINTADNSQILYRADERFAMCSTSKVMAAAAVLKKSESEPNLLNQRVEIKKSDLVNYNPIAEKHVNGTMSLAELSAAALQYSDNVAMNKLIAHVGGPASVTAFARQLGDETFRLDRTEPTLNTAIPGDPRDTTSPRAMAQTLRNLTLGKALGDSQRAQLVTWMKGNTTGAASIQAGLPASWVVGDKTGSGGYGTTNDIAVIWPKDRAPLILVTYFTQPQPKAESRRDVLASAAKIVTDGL
Summary of the method: (§1)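 Native untagged enzymes were expressed in E. coli BL21(DE3) and purified by cation exchange and gel filtration. Compound series (100–0.005 μM in PBS pH 7.0, before addition of an equal enzyme volume) were preincubated with enzyme 10 min at 37°C. Nitrocefin (100 μM final) hydrolysis was read kinetically at 486 nm for 10 min, and IC50 was taken as 50% reduction of initial rate versus no-inhibitor wells.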

Class C P99 AmpC = target: T3, Class C P99 AmpC (Enterobacter cloacae, UniProt P05364); format: biochemical; conditions: purified enzyme; nitrocefin 100 μM, PBS pH 7.0; read-out: P99 AmpC IC50 Range
T3 construct: made in house; host or cells: E. coli BL21(DE3)
T3 sequence (P05364 21-381): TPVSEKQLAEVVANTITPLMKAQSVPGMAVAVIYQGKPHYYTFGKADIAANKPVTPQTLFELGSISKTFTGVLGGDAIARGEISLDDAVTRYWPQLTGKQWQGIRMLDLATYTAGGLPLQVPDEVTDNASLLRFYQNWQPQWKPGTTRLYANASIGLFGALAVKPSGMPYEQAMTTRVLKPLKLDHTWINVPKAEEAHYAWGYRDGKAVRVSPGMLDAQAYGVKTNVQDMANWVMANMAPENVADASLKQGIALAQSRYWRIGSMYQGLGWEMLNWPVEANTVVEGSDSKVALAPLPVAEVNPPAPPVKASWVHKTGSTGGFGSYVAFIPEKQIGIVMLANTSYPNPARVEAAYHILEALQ
Summary of the method: as §1

[1] = system: E. cloacae expressing the Class C P99+ AmpC; test: microbe, parasite or virus in culture; format: cell-based; conditions: in the presence of fixed 8 μg/mL Ceftazidime
Source text: To determine the ability of test compounds to potentiate the inhibition of the growth of bacterial strains producing beta-lactamase enzymes, classic cell based screening assays were employed. Four bacteria strains producing beta-lactamase enzymes were used: K. pneumoniae expressing the Class A Extended Spectrum Beta-Lactamase (ESBL) CTX-M-15, E. coli expressing the Class A ESBL SHV-5, E. cloacae expressing the Class C P99+, and K. pneumoniae expressing the Class A carbapenemase KPC-2. In order to evaluate the ability of test compounds to inhibit beta-lactamase activity, Applicants used a modification of the broth microdilution assay. The assay was conducted in Cation Adjusted Mueller Hinton Broth (CAMHB, BD # 212322, BD Diagnostic Systems, Sparks, Md.). Bacteria strains were grown for 3-5 hours in CAMBH broth. All four strains were grown in presence of 50 μg/mL ampicillin to ensure resistance is maintained. In the meantime, test compounds were diluted in DMSO to a 0.1 mg/mL stock. The compounds were added to a microtiter plate and were diluted in 2-fold serial dilutions in CAMHB in a final concentration range of 8 μg/mL to 0.015 μg/ml. An overlay of CAMHB containing a cephalosporin was added to the compounds at a final static concentration of 8 μg/ml. […] Each of these compound plates are made in quadruplicate, one for each bacteria strain. In addition to the titration of test compounds the MICs of a panel of cephalosporins is also tested to ensure the strains are behaving consistently from test to test. Once the test compound and cephalosporin are added the plates can be inoculated. Inocula are conducted according to CLSI broth microdilution method. After inoculation the plates are incubated for 16-20 hours at 37° C. then the Minimal Inhibitory Concentration (MIC) of the test compound is determined visually.

[2] = system: K. pneumoniae expressing the Class A ESBL CTX-M-15; test: microbe, parasite or virus in culture; format: cell-based; conditions: in the presence of fixed 8 μg/mL Ceftazidime
[3] = system: K. pneumoniae expressing the Class A carbapenemase KPC-2; test: microbe, parasite or virus in culture; conditions: in the presence of fixed 8 μg/mL Ceftazidime
[4] = target: T4, Class A carbapenemase KPC-2 (Klebsiella pneumoniae, UniProt Q9F663); test: β-lactamase enzyme inhibition (nitrocefin hydrolysis), KPC-2; format: biochemical; conditions: purified enzyme; nitrocefin 100 μM, PBS pH 7.0; read-out: KPC-2 IC50 Range
T4 construct: made in house; host or cells: E. coli BL21(DE3)
T4 sequence (Q9F663 25-293 limits assumed): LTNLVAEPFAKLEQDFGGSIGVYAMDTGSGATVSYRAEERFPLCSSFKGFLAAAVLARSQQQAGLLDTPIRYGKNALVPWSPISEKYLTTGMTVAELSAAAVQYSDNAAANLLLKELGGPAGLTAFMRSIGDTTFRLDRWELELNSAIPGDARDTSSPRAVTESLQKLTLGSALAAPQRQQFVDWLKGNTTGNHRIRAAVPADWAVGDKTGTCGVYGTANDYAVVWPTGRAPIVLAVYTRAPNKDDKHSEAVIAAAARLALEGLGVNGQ
Summary of the method: as §1

[5] = cellular extracts of E. coli containing SHV-5 (Examples 2-30)

Compound | IC50 (Class A ESBL SHV-5; [5]) [µM] | IC50 (Class A ESBL CTXM-15) [µM] | IC50 (Class C P99 AmpC) [µM] | MIC of example compound, E. cloacae P99 AmpC + 8 μg/mL CAZ [1] | MIC of example compound, K. pneumoniae CTX-M-15 + 8 μg/mL CAZ [2] | MIC of example compound, K. pneumoniae KPC-2 + 8 μg/mL CAZ [3] | IC50 (Class A ESBL SHV-5; purified beta-lactamase enzyme (Examples 1 and 31-64)) [µM] | IC50 [4] [µM]
CC(C)C(=O)N[C@@H](Cc1cccc(C(=O)O)c1O)B(O)O [Example 14, (1R)-1-Isobutyrylamino-1-(3-carboxy-2-hydroxy)benzyl-methylboronic acid] | 0.1 to 1 | 0.01 to 0.1 | < 0.01 | C (C represents an MIC of <1 μg/mL) | C (C represents an MIC of <1 μg/mL) | C (C represents an MIC of <1 μg/mL) |  | 
O=C(N[C@@H](Cc1cccc(C(=O)O)c1O)B(O)O)c1ccc(O)cc1 [Example 36, (1R)-1-(4-Hydroxybenzoyl)-amino-1-(3-carboxy-2-hydroxy)benzyl-methylboronic acid] |  | < 0.01 | < 0.01 | C (C represents an MIC of <1 μg/mL) | C (C represents an MIC of <1 μg/mL) | C (C represents an MIC of <1 μg/mL) | 0.1 to 1 | < 0.01
O=C(N[C@@H](Cc1cccc(C(=O)O)c1O)B(O)O)c1ccccc1 [Example 13, (1R)-1-Benzoylamino-1-(3-carboxy-2-hydroxy)benzyl-methylboronic acid] | 0.01 to 0.1 | 0.01 to 0.1 | < 0.01 | C (C represents an MIC of <1 μg/mL) | C (C represents an MIC of <1 μg/mL) | C (C represents an MIC of <1 μg/mL) |  | < 0.01
O=C(CCC(=O)c1cccs1)N[C@@H](Cc1cccc(C(=O)O)c1O)B(O)O [Example 5, (1R)-1-(4-Oxo-4-thiophen-2-yl-butyrylamino)-2-(2-hydroxy-3-carboxyphenyl)ethyl-1-boronic acid] | < 0.01 | < 0.01 | < 0.01 | C (C represents an MIC of <1 μg/mL) | C (C represents an MIC of <1 μg/mL) | C (C represents an MIC of <1 μg/mL) |  | 
CCC(=O)N[C@@H](Cc1cccc(C(=O)O)c1O)B(O)O [Example 16, (1R)-1-(propionylamino)-2-(2-hydroxy-3-carboxyphenyl)ethyl-1-boronic acid] | 0.1 to 1 | 0.01 to 0.1 | 0.01 to 0.1 | C (C represents an MIC of <1 μg/mL) | C (C represents an MIC of <1 μg/mL) | C (C represents an MIC of <1 μg/mL) |  | 0.01 to 0.1
O=C(O)c1cccc(C[C@H](NC(=O)C2CCCC2)B(O)O)c1O [Example 15, (1R)-1-Cyclopentanecarbonylamino-(3-carboxy-2-hydroxy)benzyl-methylboronic acid] | 0.1 to 1 | 0.01 to 0.1 | < 0.01 | C (C represents an MIC of <1 μg/mL) | C (C represents an MIC of <1 μg/mL) | C (C represents an MIC of <1 μg/mL) |  | 
O=C(N[C@@H](Cc1cccc(C(=O)O)c1O)B(O)O)c1cccs1 [Example 11, (1R)-1-(thiophene-2-carbonyl-amino)-2-(2-hydroxy-3-carboxyphenyl)ethyl-1-boronic acid] | 0.01 to 0.1 | < 0.01 | < 0.01 | C (C represents an MIC of <1 μg/mL) | C (C represents an MIC of <1 μg/mL) | C (C represents an MIC of <1 μg/mL) |  | 
